Structures can show the parent of a compound that is named as a salt. Values belong to the compound of their own block, whether it stands above or below them.
Experiments:
human NaPi-2a = target: T1, human NaPi-2a (Homo sapiens, UniProt Q06495); experiment: Sodium-dependent phosphate uptake of Xenopus oocytes which expressed NaPi-2a (32P); assay type: cell-based; settings: Xenopus oocytes expressing human NaPi-2a, FIG. 3, FIG. 4
T1 construct: expressed in transfected cells
T1 sequence (Q06495 1-639): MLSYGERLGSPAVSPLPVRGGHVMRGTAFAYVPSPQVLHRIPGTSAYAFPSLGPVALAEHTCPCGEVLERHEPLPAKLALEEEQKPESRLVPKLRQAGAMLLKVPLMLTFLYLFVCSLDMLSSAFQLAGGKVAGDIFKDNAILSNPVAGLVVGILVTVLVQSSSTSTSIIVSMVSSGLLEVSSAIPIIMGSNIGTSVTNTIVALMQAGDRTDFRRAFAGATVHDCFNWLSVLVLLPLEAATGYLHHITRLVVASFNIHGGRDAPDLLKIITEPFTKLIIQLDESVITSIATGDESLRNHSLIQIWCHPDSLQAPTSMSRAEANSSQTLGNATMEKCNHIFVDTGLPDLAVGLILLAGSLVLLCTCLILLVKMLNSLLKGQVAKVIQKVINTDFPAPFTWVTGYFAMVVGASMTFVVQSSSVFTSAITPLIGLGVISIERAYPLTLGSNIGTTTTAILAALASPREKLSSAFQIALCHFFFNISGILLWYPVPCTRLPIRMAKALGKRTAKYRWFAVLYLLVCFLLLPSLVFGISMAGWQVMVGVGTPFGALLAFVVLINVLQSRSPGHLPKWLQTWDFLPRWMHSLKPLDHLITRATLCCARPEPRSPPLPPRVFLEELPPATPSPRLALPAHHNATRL
Text: Experiment of Sodium-Dependent Phosphate Uptake of Xenopus oocytes which Expressed NaPi-2a
In the test, a group with the addition of choline chloride (Choline Cl) was used as a negative control for nonspecific uptake, and PFA (phosphonoformic acid) was used as a positive control for phosphate transport inhibition.

[1] = system: rabbit jejunal brush border membrane vesicles; experiment: Sodium-dependent phosphate uptake of rabbit jejunal brush border membrane vesicles (32P, rapid filtration); assay type: biochemical; settings: FIG. 1
Text: Pharmacological Test Example 2
Experiment of Sodium-Dependent Phosphate Uptake of Rabbit Jejunal Brush Border Membrane Vesicles
(§1) Jejunal epithelium was obtained from New Zealand white male rabbits (7 weeks old, obtained from KITAYAMA LABES Co., Ltd. (Japan)), and brush border membrane vesicles were isolated by the calcium precipitation method described in Kanako Katai et al., J. Biochem. 121, 50-55, 1997, and Peerce, B. E. et al., Biochemistry 26, 4272-4279, 1987. Thereafter, for compound 29 and compound 68, the phosphate uptake inhibitory activity was measured using the same samples with ^32P radioactive phosphorus (manufactured by Daiichi Kagaku Inc. (Japan)) by the rapid filtration method described in Kanako Katai et al., J. Biochem. 121, 50-55, 1997. […] Further, in the same experiment, nonspective inhibitory activity against glucose absorption was determined using 14C-glucose (manufactured by Moravek Biochemical Inc. (US)). […] In both the experiments, a group with the addition of potassium chloride was used as a negative control for nonspecific uptake. All the test results given below were expressed in terms of average value±standard error. Student's t-test was used for a significant test of the control group and the test compound group.

rat NaPi-2b = target: T2, rat NaPi-2b (Rattus norvegicus, UniProt Q9JJ09); experiment: Sodium-dependent phosphate uptake of Xenopus oocytes which expressed NaPi-2b (32P); assay type: cell-based; settings: for IC50: Xenopus oocytes expressing rat NaPi-2b, 32P radioactive phosphorus, read-out: IC50 (phosphate uptake inhibitory activity)
T2 construct: expressed in transfected cells; host or cells: Xenopus oocytes injected with cRNA
T2 sequence (Q9JJ09 1-695): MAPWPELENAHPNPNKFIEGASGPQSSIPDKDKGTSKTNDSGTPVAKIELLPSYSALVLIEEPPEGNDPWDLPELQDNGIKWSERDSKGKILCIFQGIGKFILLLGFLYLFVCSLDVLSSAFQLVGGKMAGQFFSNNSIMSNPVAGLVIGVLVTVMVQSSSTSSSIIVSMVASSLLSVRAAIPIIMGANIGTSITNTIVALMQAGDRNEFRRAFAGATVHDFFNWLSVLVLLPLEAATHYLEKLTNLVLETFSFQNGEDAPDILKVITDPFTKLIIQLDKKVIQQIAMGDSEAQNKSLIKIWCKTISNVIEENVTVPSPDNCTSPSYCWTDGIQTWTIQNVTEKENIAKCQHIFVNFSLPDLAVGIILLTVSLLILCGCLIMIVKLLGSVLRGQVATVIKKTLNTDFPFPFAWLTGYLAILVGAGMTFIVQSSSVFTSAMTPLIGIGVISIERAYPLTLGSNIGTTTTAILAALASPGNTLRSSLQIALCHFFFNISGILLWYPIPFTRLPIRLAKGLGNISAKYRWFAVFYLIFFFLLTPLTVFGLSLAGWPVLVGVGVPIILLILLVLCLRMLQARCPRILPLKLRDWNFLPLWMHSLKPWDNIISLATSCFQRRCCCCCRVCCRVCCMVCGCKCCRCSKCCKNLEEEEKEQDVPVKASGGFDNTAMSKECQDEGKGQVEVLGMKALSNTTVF
Method in brief: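 Inhibition at 300 μM and 100 μM was read off one inhibition curve of 32P phosphate uptake. Uptake was measured in Xenopus oocytes cultured 2 days after injection of cRNA for cloned rat NaPi-2b.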

[2] = system: rabbit jejunal brush border membrane vesicles; experiment: Nonspecific inhibitory activity against glucose absorption in rabbit jejunal brush border membrane vesicles (14C-glucose); assay type: biochemical; settings: FIG. 2
Protocol: as §1

SD rats = experiment: Inhibitory activity against 32P absorption from intestinal tract; assay type: in vivo; settings: Rattus norvegicus, oral, read-out: Blood radioactivity inhibition, %
Protocol: Pharmacological Test Example 4
Inhibitory Activity Against ^32P Absorption from Intestinal Tract
SD rats (6 to 7 weeks old, obtained from Charles River Japan, Inc. (Japan)) were raised with low-phosphorus diet (phosphorus content 0.1%, manufactured by Oriental Yeast Co., Ltd. (Japan)) for 3 to 4 days and then fasted for about 24 hr for experiment. ^32P was diluted with purified water or liquid feed (CLEA JAPAN INC. (Japan)) to 0.7 to 3.5 MBq/ml and was forcibly orally administered at a dose of 5 ml/kg (administered into the gaster through an oral probe). The compounds or media were forcibly orally administered at a dose of 5 ml/kg (divided dose of twice), 30 min before the administration of ^32P and simultaneously with the administration of ^32P. Blood was collected from caudal artery 30 min, 45 min, or 60 min after ^32P administration, and blood ^32P radioactivity was measured with a liquid scintillation counter. Inhibition of an increase in blood radioactivity was used as a measure of inhibition of phosphate absorption from the intestinal tract.
The results are expressed in terms of the percentage inhibition determined by the following equation. (Blood radioactivity for group with the administration of medium−Blood radioactivity for group with the administration of compound)/(Blood radioactivity for group with the administration of medium)×100
t-Test was used for a significant test of the average value difference of blood radioactivity.

- IC50 (rat NaPi-2b): 2.43 µM
SMILES: Cc1ccc(/C=N/NC(=O)c2ccccc2NC(=O)c2cccnc2)cc1C [Compound 165, N-[2-(3,4-Dimethyl-benzylidene-hydrazinocarbonyl)-phenyl]-nicotinamide hydrochloride]
- inhibition in vivo at 400 mg/kg (SD rats): 27.6%

- IC50 (rat NaPi-2b): 1.49 µM
SMILES: Cc1ccc(/C=N/NC(=O)c2cc(Br)ccc2NC(=O)c2cccnc2)cc1 [Compound 252, N-[4-Bromo-2-(4-methyl-benzylidene-hydrazinocarbonyl)-phenyl]-nicotinamide hydrochloride]
- inhibition in vivo at 400 mg/kg (SD rats): 29.2%

- IC50 (rat NaPi-2b): 3.47 µM
SMILES: Cc1cccc(/C=N/NC(=O)c2ccccc2NC(=O)c2ccncc2)c1 [Compound 253, N-[2-(3-Methyl-benzylidene-hydrazinocarbonyl)-phenyl]-isonicotinamide hydrochloride]
- inhibition in vivo at 400 mg/kg (SD rats): 39%

- IC50 (rat NaPi-2b): 0.9 µM
SMILES: CCN(CC)CCN(C)Cc1ccc(C(=O)Nc2ccc(Br)cc2C(=O)N/N=C/c2ccc(C)cc2)cc1 [Compound 285, N-[4-Bromo-2-(4-methyl-benzylidene-hydrazinocarbonyl)-phenyl]-4-{[(2-diethylamino-ethyl)-methyl-amino]-methyl}-benzamide]
- inhibition in vivo at 80 mg/kg (SD rats; dose 80 mg/kg): 60.3%

- IC50 (rat NaPi-2b): 9.02 µM
SMILES: COc1cccc(/C=N/NC(=O)c2cc(Br)ccc2NC(=O)c2ccc(CN3CCC(N4CCCCC4)CC3)cc2)c1 [Compound 315, 4-[1,4′]Bipiperidinyl-1′-ylmethyl-N-[4-bromo-2-(3-methoxy-benzylidene-hydrazinocarbonyl)-phenyl]-benzamide]
- inhibition in vivo at 100 mg/kg (SD rats): 42.4%

- IC50 (rat NaPi-2b): 0.8 µM
SMILES: Cc1ccc(/C=N/NC(=O)c2cc(Cl)ccc2NC(=O)c2cccc(CN3CCC(N4CCCCC4)CC3)c2)cc1C [Compound 372, 3-[1,4′]Bipiperidinyl-1′-ylmethyl-N-[4-chloro-2-(3,4-dimethyl-benzylidene-hydrazinocarbonyl)-phenyl]-benzamide]
- inhibition in vivo at 100 mg/kg (SD rats): 63.7%

Continued, compound first:

SMILES: COc1ccc(C(=O)Nc2ccc(Br)cc2C(=O)N/N=C/c2cccc(F)c2)cc1OC [Compound 29, N-[4-Bromo-2-(3-fluoro-benzylidene-hydrazinocarbonyl)-phenyl]-3,4-dimethoxy-benzamide]
- phosphate uptake inhibitory activity against NaPi-2a (human NaPi-2a): had inhibitory activity
- phosphate uptake inhibitory activity [1]: concentration-dependent inhibitory activity
- IC50 (rat NaPi-2b): 0.55 µM
- phosphate uptake inhibitory activity against NaPi-2b (rat NaPi-2b; Xenopus oocytes, FIG. 4): had inhibitory activity
- nonspecific inhibitory activity against glucose absorption [2]: did not have the inhibitory activity

SMILES: COc1ccc(C(=O)Nc2ccc(Cl)cc2C(=O)N/N=C/c2ccc(C)cc2)cc1OC [Compound 68, N-[4-Chloro-2-(4-methyl-benzylidene-hydrazinocarbonyl)-phenyl]-3,4-dimethoxy-benzamide]
- phosphate uptake inhibitory activity [1]: concentration-dependent inhibitory activity
- IC50 (rat NaPi-2b): 0.36 µM
- nonspecific inhibitory activity against glucose absorption [2]: did not have the inhibitory activity

SMILES: COc1ccc(C(=O)Nc2ccc(Br)cc2C(=O)N/N=C/c2ccc(C)c(C)c2)cc1OC [Compound 91, N-[4-Bromo-2-(3,4-dimethyl-benzylidene-hydrazinocarbonyl)-phenyl]-3,4-dimethoxy-benzamide]
- inhibition in vivo at 320 mg/kg (SD rats): 28.3%
- IC50 (rat NaPi-2b): 0.22 µM

SMILES: COc1ccc(C(=O)Nc2ccc(Cl)cc2C(=O)N/N=C/c2ccc(C)c(C)c2)cc1OC [Compound 92, N-[4-Chloro-2-(3,4-dimethyl-benzylidene-hydrazinocarbonyl)-phenyl]-3,4-dimethoxy-benzamide]
- inhibition in vivo at 160 mg/kg (SD rats; dose 160 mg/kg): 25.5%
- IC50 (rat NaPi-2b): 0.26 µM

SMILES: O=C(Nc1ccccc1C(=O)N/N=C/c1ccc(F)cc1)c1cccnc1 [Compound 130, N-[2-(4-Fluoro-benzylidene-hydrazinocarbonyl)-phenyl]-nicotinamide]
- inhibition in vivo at 270 mg/kg (SD rats; dose 270 mg/kg): 22.8%
- IC50 (rat NaPi-2b): 11.4 µM

SMILES: O=C(Nc1ccc(Br)cc1C(=O)N/N=C/c1cccc(F)c1)c1cccs1 [Compound 157, Thiophene-2-carboxylic acid [4-bromo-2-(3-fluoro-benzylidene-hydrazinocarbonyl)-phenyl]-amide]
- inhibition in vivo at 320 mg/kg (SD rats): 20.7%
- IC50 (rat NaPi-2b): 7.19 µM

SMILES: Cc1ccc(/C=N/NC(=O)c2ccccc2NC(=O)c2ccncc2)cc1C [Compound 163, N-[2-(3,4-Dimethyl-benzylidene-hydrazinocarbonyl)-phenyl]-isonicotinamide hydrochloride]
- inhibition in vivo at 360 mg/kg (SD rats; dose 360 mg/kg): 57.8%
- IC50 (rat NaPi-2b): 1.6 µM

SMILES: Cc1ccc(/C=N/NC(=O)c2ccccc2NC(=O)c2cccnc2)cc1 [Compound 164, N-[2-(4-Methyl-benzylidene-hydrazinocarbonyl)-phenyl]-nicotinamide hydrochloride]
- inhibition in vivo at 400 mg/kg (SD rats): 55%
- IC50 (rat NaPi-2b): 4.76 µM
